# Tests used:
# [1] = CD1, BC, CD1, NMRI, SCID, or Nd, rat, hepatocytes
# [2] = physchem; conditions: octan-1-ol/water, pH 7.4, LogD7.4
# [3] = in vitro; conditions: human
# [4] = in vitro; conditions: human, plasma, PPB
# [5] = in vitro; conditions: Beagle, dog, plasma
# [6] = in vitro; conditions: hepatocytes
# [7] = rat, plasma, 5 h
# [8] = in vitro; conditions: mouse, plasma
# [9] = in vitro; conditions: SD, HW or BN, rat, plasma
# [10] = in vitro; conditions: human, hepatocytes
# [11] = physchem
# [12] = physchem; remark: listed apart in the source
# [13] = physchem; remark: listed apart in the source
# [14] = human, plasma, 5 h
# [15] = ASTRAZENECA: Third most basic pKa value (pKa B3) determined by absorption and potentiometric titration using standard methodology from Sirius Analytical. Experimental range Bases: >= 2.; assay type: physicochemical; conditions: read-out: pKa_B3
# [16] = physchem; remark: listed apart in the source
# [17] = in vitro; conditions: Dunkin Hartley, guinea pig, plasma
# [18] = physchem; conditions: pH 7.4 buffer
compound,measurement,setting,value
Fc1cccc(COc2ccc(Nc3ncnc4ccc(-c5cccc(N6CCOCC6)c5)cc34)cc2Cl)c1,CLint,[1],44.67 microL/min/1E6 cells
same,logD,[2],3.2
same,microsomal CLint,[3]; microsomes,63.1 µL/min/mg
COc1cc(-n2cnc3cc(-c4ccc(Cl)cc4)sc3c2=O)ccc1OC[C@H](O)C1CC1,fraction unbound at 5 h,[4],0.0021
same,fraction unbound at 5 h,[5],0.0014
same,hepatocyte CLint,[6],9.77 µL/min/1e6 cells
same,PPB,[7],98.81%
same,fraction unbound at 5 h,[8],0.0018
Cc1c(Sc2ccc(Cl)cc2)c2c(NS(C)(=O)=O)cccc2n1CC(=O)O,fraction unbound at 5 h,[9],0.0031
same,fraction unbound at 5 h,[4],0.0104
same,hepatocyte CLint,[10],4.76 µL/min/1e6 cells
same,hepatocyte CLint,[6],5 µL/min/1e6 cells
same,pKa,[11],10.2
same,logD,[2],0.21
same,pKa,[12],2.9
COc1ccc([C@@H]2Sc3ccccc3N(CCN(C)C)C(=O)[C@@H]2OC(C)=O)cc1 [DILTIAZEM],pKa,[13],8.08
same,hepatocyte CLint,[10],9.33 µL/min/1e6 cells
same,fraction unbound at 5 h,[5],0.349
same,hepatocyte CLint,[6],> 150 µL/min/1e6 cells
same,PPB,[14],75.97%
same,logD,[2],1.99
same,microsomal CLint,[3]; liver microsomes,43.6 µL/min/mg
COc1cc2nc(-c3ccc(N4CCN(C)CC4)cc3)nc(NCCN3CCOCC3)c2cc1OC,pKa,[15],5.6
same,pKa,[13],7.93
same,pKa,[16],6.78
CCCc1c2nc(C(=O)O)cc(Cl)c2cc2c(=O)cc(C(=O)O)oc12,pKa,[11],3.7
NCc1ccccc1CC(=O)N[C@@H]1C(=O)N2C(C(=O)O)=C(CSc3nnnn3CC(=O)O)CS[C@H]12 [CEFORANIDE],pKa,[13],8.88
same,pKa,[11],3.63
same,pKa,[12],2.01
Oc1nc(-c2ccc(C(F)(F)F)cc2)nc2c1CSCC2,PPB,[14],97.6%
CC1(C)S[C@@H]2[C@H](NC(=O)[C@H](N)c3ccc(O)cc3)C(=O)N2[C@H]1C(=O)O [AMOXICILLIN],pKa,[13],7.52
same,pKa,[11],9.77
same,pKa,[12],4.03
CON=C(C(=O)N[C@@H]1C(=O)N2C(C(=O)O)=C(COC(C)=O)CS[C@H]12)c1csc(N)n1,pKa,[13],2
same,pKa,[11],9.43
same,pKa,[12],3.35
O=C(O)C[C@H](O)C[C@H](O)/C=C/c1c(C2CC2)nc2ccccc2c1-c1ccc(F)cc1 [PITAVASTATIN],fraction unbound at 5 h,[9],0.0064
same,fraction unbound at 5 h,[4],0.02
same,fraction unbound at 5 h,[5],0.0293
same,CLint,[1],7.11 microL/min/1E6 cells
same,logD,[2],0.91
same,microsomal CLint,[3]; microsomes,< 3 µL/min/mg
Cc1ccc(S(=O)(=O)Nc2c(C(=O)N[C@@H](C)C(C)(C)C)c(C)nn2-c2ccccc2)cc1,fraction unbound at 5 h,[17],0.0818
same,solubility thermodynamic,[18],1020 µM
same,fraction unbound at 5 h,[5],0.0321
same,PPB,[14],98.89%
same,logD,[2],1.44
same,PPB,[7],95.82%
CCc1nc2cc(O)ccc2c(Oc2ccc(/C=C/C(=O)O)cc2)c1-c1ccccc1,fraction unbound at 5 h,[4],0.0056
same,pKa,[13],5.51
same,pKa,[11],7.81
same,logD,[2],3
same,pKa,[12],4.34
Nc1nc2ccc(OC(F)(F)F)cc2s1 [RILUZOLE],PPB,[14],97.13%
CN(C)CCNc1cc(-c2ccc(N3CCN(C)CC3)cc2)nc2ccccc12,pKa,[15],7.31
same,pKa,[13],8.94
same,pKa,[16],7.96
OCCN1CCN(CCCN2c3ccccc3Sc3ccc(Cl)cc32)CC1 [PERPHENAZINE],fraction unbound at 5 h,[9],0.0146
same,PPB,[14],98.51%
O=C(NC[C@H]1CN(c2ccc(N3CCOCC3=O)cc2)C(=O)O1)c1ccc(Cl)s1 [RIVAROXABAN],PPB,[7],94.56%
O=C(O)c1cc(=O)c2ccc(O)cc2o1,pKa,[11],7.3
same,pKa,[12],< 2
COc1ccc([C@@H]2Sc3ccccc3N(CCN(C)C)C(=O)[C@@H]2OC(C)=O)cc1.Cl [DILTIAZEM HYDROCHLORIDE],PPB,[14],35.46%
O=C(NCc1cccnc1OCC(F)(F)F)c1cncc(-c2ccc(Cl)cc2)c1,PPB,[7],99.87%
CCCc1c2nc(C(=O)O)cc(NC)c2cc2c(=O)cc(C(=O)O)oc12 [MINOCROMIL],pKa,[13],8.8
same,pKa,[11],< 2
same,pKa,[12],< 2
CCCc1c2oc(C(=O)O)cc(=O)c2cc2c(=O)cc(C(=O)O)n(CC)c12 [NEDOCROMIL],pKa,[11],< 2
same,pKa,[12],< 2
NCCc1ccc(O)c(O)c1F,pKa,[13],8
same,pKa,[11],10.3
same,pKa,[12],7.8
CSc1ccc2c(c1)N(CCC1CCCCN1C)c1ccccc1S2 (configuration not stated) [THIORIDAZINE],fraction unbound at 5 h,[4],0.0037
same,hepatocyte CLint,[6],114 µL/min/1e6 cells
same,logD,[2],3.76
same,PPB,[7],99.3%
same,microsomal CLint,[3]; microsomes,50 µL/min/mg
NCCc1ccc(O)c2nc(O)ccc12,pKa,[13],7.7
same,pKa,[11],10.2
same,pKa,[12],7.6
N#Cc1cc(-c2n[nH]c(-c3ccncc3)n2)ccn1 [TOPIROXOSTAT],hepatocyte CLint,[6],< 3 µL/min/1e6 cells
same,PPB,[14],84.9%
same,microsomal CLint,[3]; liver microsomes,5 µL/min/mg
CC1(C)[C@H](NC(=O)/C(=N\OCc2cc(=O)c(O)cn2O)c2csc(N)n2)C(=O)N1OS(=O)(=O)O,fraction unbound at 5 h,[9],0.124
same,PPB,[14],69.12%
O=C(O)c1cc(=O)c2c(OCC(O)COc3cccc4oc(C(=O)O)cc(=O)c34)cccc2o1 [CROMOLYN],pKa,[11],< 2
same,pKa,[12],< 2
O=C(NCCc1ccccc1Cl)c1cc(-n2ncc(=O)[nH]c2=O)ccc1Cl,fraction unbound at 5 h,[9],0.0224
same,hepatocyte CLint,[6],8 µL/min/1e6 cells
same,PPB,[14],97.2%
same,logD,[2],1.29
same,pKa,[12],6.1
Cc1ccc(C(=O)N(CCCN)[C@@H](c2nc3cc(Cl)ccc3c(=O)n2Cc2ccccc2)C(C)C)cc1 [ISPINESIB],PPB,[14],99.4%
Cc1ccc(-c2ccc3c(ccc4sc5c(c43)NC[C@@H](C)NC5=O)n2)cn1,fraction unbound at 5 h,[4],0.151
same,logD,[2],3.6
same,PPB,[7],98.86%
same,fraction unbound at 5 h,[8],0.0229
COCCCC/C(=N\OCCN)c1ccc(C(F)(F)F)cc1 [FLUVOXAMINE],PPB,[14],75.55%
O=C(O)CCCCCCCC(=O)O [AZELAIC ACID],pKa,[11],5.87
same,pKa,[12],3.49
O=C(O)c1cc(O)cc(Cl)c1,pKa,[11],8.57
same,pKa,[12],3.81
CC/C(=C(/c1ccc(O)cc1)c1ccc(/C=C/C(=O)O)cc1)c1ccccc1,hepatocyte CLint,[10],55 µL/min/1e6 cells
same,solubility thermodynamic,[18],1 µM
same,hepatocyte CLint,[6],69.2 µL/min/1e6 cells
same,pKa,[11],9.55
same,microsomal CLint,[3]; liver microsomes,33.9 µL/min/mg
CO[C@@]1(NC(=O)CSCC#N)C(=O)N2C(C(=O)O)=C(CSc3nnnn3C)CS[C@@H]21 [CEFMETAZOLE],fraction unbound at 5 h,[4],0.194
same,pKa,[11],10.2
same,pKa,[12],3.37
O=C(c1ccc(OCCN2CCCCC2)cc1)c1c(-c2ccc(O)cc2)sc2cc(O)ccc12 [RALOXIFENE],fraction unbound at 5 h,[4],0.005
same,solubility thermodynamic,[18],9.1 µM
same,fraction unbound at 5 h,[5],0.0057
same,hepatocyte CLint,[6],30 µL/min/1e6 cells
same,logD,[2],4.13
same,PPB,"[7]; SD, HW or BN",99.5%
same,microsomal CLint,[3]; liver microsomes,21 µL/min/mg
Cc1ccc(-c2cc(C(F)(F)F)nn2-c2ccc(S(N)(=O)=O)cc2)cc1 [CELECOXIB],hepatocyte CLint,[10],25.7 µL/min/1e6 cells
same,solubility thermodynamic,[18],2.2 µM
same,PPB,[14],98.94%
same,logD,[2],3.42
Cc1c(S(=O)(=O)c2ccc(Cl)cc2)c2c(NS(C)(=O)=O)cccc2n1CC(=O)O,pKa,[11],9.8
same,logD,[2],-0.83
same,pKa,[12],2.8
CCCCNc1cc(C(=O)O)cc(S(N)(=O)=O)c1Oc1ccccc1 [BUMETANIDE],fraction unbound at 5 h,[9],0.0366
same,fraction unbound at 5 h,[4],0.0156
same,pKa,[13],6.07
same,solubility thermodynamic,[18],1450 µM
same,hepatocyte CLint,[6],145 µL/min/1e6 cells
same,pKa,[11],9.73
same,logD,[2],-0.3
same,pKa,[12],3.49
same,microsomal CLint,[3]; microsomes,4 µL/min/mg
O=C(Nc1c(Cl)cncc1Cl)c1ccc(OC(F)F)c(OCC2CC2)c1 [ROFLUMILAST],fraction unbound at 5 h,[9],0.0114
same,solubility thermodynamic,[18],1.1 µM
same,hepatocyte CLint,[6],> 150 µL/min/1e6 cells
same,PPB,[14],99.5%
same,logD,[2],3.95
same,microsomal CLint,[3]; microsomes,5 µL/min/mg
O=C(NO)c1ccccc1O [SALICYLHYDROXAMIC ACID],pKa,[11],9.9
same,pKa,[12],7.5
same,microsomal CLint,[3]; liver microsomes,< 3 µL/min/mg

# Reference: ChEMBL document CHEMBL3301361, “Experimental in vitro DMPK and physicochemical data on a set of publicly disclosed compounds”
